Test results reported in patent US20230293560A1, “METHOD FOR MODULATING THE BLADDER MICROBIOME TO IMPROVE BLADDER HEALTH” (Kimberly-Clark Worldwide, Inc., priority 2020, published 2023).
“And” between values parts separate entries of the source, which are not always exact repeats. Equal entries are not always repeated.

Columns and labels:
[1] = test system: E. coli; assay: Additional prebiotic screening against E. coli; assay type: cell-based, Escherichia coli; details: for # fermented, Ec-1 / # grew, Ec-1: E. coli KC16-7171-8, Bladder; for # fermented, Ec-1 / # grew, Ec-1 / # fermented, Ec-2 / # grew, Ec-2 / # fermented, Ec-3 / # grew, Ec-3 / # fermented, Ec-4 / # grew, Ec-4 / # fermented, Ec-5 / # grew, Ec-5: of 2 tested; for # fermented, Ec-2 / # grew, Ec-2: E. coli KC17-3969-1, Bladder; for # fermented, Ec-3 / # grew, Ec-3: E. coli KC17-3970-4, Vagina; for # fermented, Ec-4 / # grew, Ec-4: E. coli KC17-4296-4, Vagina; for # fermented, Ec-5 / # grew, Ec-5: E. coli KC17-4297-5, Bladder; for growth or fermentation of E. coli, in words: E. coli from vaginal or bladder source
Excerpt: Additional screening of three prebiotic compounds of alpha-methyl-D-glucoside, isomaltulose, and alpha cyclodextrin was completed against pathogenic bacteria species Escherichia coli from both bladder and vaginal sources, as shown in Table 4. The growth of the bacterial species for this additional screening process against E. coli was not compared to growth of a control as in the screening process documented in Table 3, but was documented based on growth or no growth for the number of samples tested.
• 1. Create a 2% w/v stock of prebiotic or positive control (glucose/dextrose) to be tested in API 50 CHL media (Biomerieux, Marcy-I'Étoile, France). API 50 CHL media contains minimal amounts of carbon for growth, and a bromocresol purple as a pH indicator of fermentation. Filter sterilize media with a […]. Store at 4-6° C. until use. • 2. Add 180 μL of media containing the prebiotic to a sterile, flat bottom 96-well microtiter plate (Corning, Corning, NY). • 3. From a freezer stock subculture the bacteria twice into De Man, Rogosa and Sharpe (MRS) broth (BD Difco, Becton Dickinson, Franklin Lakes, NJ), 37° C., stationary, anaerobic, overnight. • 4. From the last subculture, plate onto an MRS agar plate (Teknova, Hollister, CA) and grow 37° C., stationary, anaerobic, overnight. • 5. Create a bacterial suspension by using a sterile tipped swab to transfer colonies of bacteria into a PBS suspension blank to a 0.5 MacFarland (S. anginosus or E. faecalis) or a 1 MacFarland (Lactobacillus species) from the MRS agar plate. • 6. Enumerate the starting culture. • 7. Inoculate the media alone and media containing the prebiotic or positive control with 20 μL of the bacterial suspension. • 8. Place the plate into a spectrophotometer (Molecular Devices, San Jose, CA) and read the plate every 20 minutes for 24-48 hours. Read wavelengths (OD 430, OD 590, and OD 660). A color change to yellow caused by a drop in pH will be read by an increase in the OD430 value and a decrease in the OD590 value and is indicative of bacterial fermentation. An increase in OD660 values is indicative of an increase in turbidity and bacterial growth.

[2] = test system: ratio of L. crispatus/S. anginosus; assay: Therapeutic effect protocol (competition assay); assay type: cell-based, Lactobacillus crispatus; Streptococcus anginosus; details: Lc-3 vs Sa-2
Excerpt: As used herein, the term “therapeutic effect” refers to the ability of the compositions and formulations of the present disclosure to stimulate the growth of L. crispatus relative S. anginosus measured according to the therapeutic effect protocol described below. The therapeutic effect can be expressed as a ratio of L. crispatus to S. anginosus and is desirably greater than about 100, more preferably greater than about 500 and more desirably greater than about 1,000.
Further testing was conducted to put the prebiotic compounds in competition assay testing, as further described in the test methods section herein. In the competition assay testing, each competition involved testing a single prebiotic compound with the commensal bacteria species of L. crispatus, KC18-1173-1, Bladder (“Lc-3”—Table 2) against the pathogenic bacterial species of S. anginosus, KC18-1131-3B, Bladder (“Sa-2”—Table 2).
• 1. An in house bacterial agar was created based on MRS agar (Kaplan and Hutkins, 2000) where the glucose is substituted for the prebiotic to be tested (either dextran MW ˜6,000, alpha-cyclodextrin, glucomannan, or pectin), bromocresol purple was included as a pH indicator. • 2. Bacteria were enumerated on each agar and color changes were recorded. Method for Competition Assay (Modified from “In Vitro Evaluation of Nutrients that Selectively Confer a Competitive Advantage to Lactobacilli” Vongsa et al, Beneficial Microbes 2016) • 1. Create 2% w/v stock of prebiotic or positive control (glucose/dextrose) as described above. • 2. From a freezer stock subculture the bacteria twice into De Man, Rogosa and Sharpe (MRS) broth (BD Difco, Becton Dickinson, Franklin Lakes, NJ), 37° C., stationary, anaerobic, overnight. • 3. From the last subculture, plate onto an MRS agar plate for L. crispatus KC18-1173-1 or blood agar for S. anginosus KC18-1131-3B, grow 37° C., stationary, anaerobic, overnight. • 4. Create a bacterial suspension by using a sterile tipped swab to transfer colonies of bacteria into a PBS suspension blank to a 2 MacFarland for both species. • 5. Enumerate the starting culture. • 6. Add 9.8 mL of prebiotic media into a 15 mL conical tube. • 7. Add 100 μL of the diluted bacteria to the media, incubate at 37° C., anaerobic, 48 hours. • 8. Harvest 100 μL from the tube containing the prebiotic and plate onto MRS agar and tryptic soy agar (TSA). • 9. Enumerate the bacteria on the MRS agar (both the L. crispatus and the S. anginosus). Small colonies are counted as S. anginosus and large colonies are counted as L. crispatus. • 10. Enumerate the bacteria on the TSA plate. […] Growth of the bacteria in the negative control (CHL media without prebiotic) was subtracted from the growth in the presence of the prebiotic or formulation.
Colonies of L. crispatus and S. anginosus were tested against in the competition method assay test method as described above. The therapeutic effect was calculated by comparing the colony forming units recovered after the competition assay of both L. crispatus and S. anginosus and calculating the ratio of L. crispatus/S. anginosus. A larger number indicates an increase in L. crispatus and/or a decrease in S. anginosus and a smaller number indicates a decrease in L. crispatus and/or an increase in S. anginosus.

Structure (SMILES) | # fermented, Ec-1 [1] | # grew, Ec-1 [1] | # fermented, Ec-2 [1] | # grew, Ec-2 [1] | # fermented, Ec-3 [1] | # grew, Ec-3 [1] | # fermented, Ec-4 [1] | # grew, Ec-4 [1] | # fermented, Ec-5 [1] | # grew, Ec-5 [1] | growth or fermentation of E. coli, in words [1] | Therapeutic Effect (ratio of L. crispatus/S. anginosus) ([2]; Table 6, prebiotic 2%) | outcome of the bacterial competition assay, in words ([2]; Tables 6 and 7)
CO[C@H]1O[C@H](CO)[C@@H](O)[C@H](O)[C@H]1O [Alpha-Methyl-D-Glucoside] | 0 | 0 | 0 | 0 | 0 | 0 | 0 | 0 | 0 | 0 | did not grow or ferment | 1.21E−01 (2×) and 1.74E−01 (2×) | 
OC[C@H]1O[C@H](OC[C@H]2OC(O)(CO)[C@@H](O)[C@@H]2O)[C@H](O)[C@@H](O)[C@@H]1O (stereo partly drawn) [Palatinose (isomaltulose), isomaltulose] | 0 | 0 | 0 | 0 | 0 | 0 | 0 | 0 | 0 | 0 | did not grow or ferment |  | supported the growth of Lactobacillus crispatus over Streptococcus anginosus
